Test results: the NIST ThermoML archive (doi:10.1021/acs.jced.6b00280)
± gives the expanded uncertainty stated by the source.

Assays:
[1] = for mass density: 298.15 K, 101.33 kPa, Pycnometric method
[2] = refractive index (Na D-line) (dimensionless); conditions: 298.15 K; 101.33 kPa; Liquid; Standard Abbe refractometry

Compound `Oc1ccccc1O` [1,2-benzenediol] has a mass density ([1]; Crystal) of 1346 ± 2 kg/m3 and a Normal melting temperature ([1]; Crystal, visual observation) of 106.10 ± 1.6 °C.
With `CCCCOC(C)=O` [butyl ethanoate] the mass density ([1]; Liquid) was 873.1 ± 2 kg/m3 and the refractive index [2] was 1.393 ± 0.0004.
`CO` [methanol] gave a mass density ([1]; Liquid) of 786.1 ± 2 kg/m3 and a refractive index [2] of 1.3264 ± 0.0004.
